Reference: US20200354327A1, “COMPOUND HAVING STAT3 INHIBITORY ACTIVITY AND USE THEREOF” (CYTUS H&B CO., LTD., priority 2017, published 2020)

How the values were obtained:
STAT92E = assay: Drosophila cell luciferase assay (10XSTAT92E-luciferase reporter); assay type: cell-based; details: activated by the ligand upd or Hop
Protocol: Drosophila cells (S2-NP, 24×3) used in the experiment were cultured as previously described (Kim B H, et al. Mol Cancer Ther. 7, 2672-2680 (2008)). S2-NP (Drosophila Schneider cell) cells were Drosophila-derived macrophage-like cells and were cultured in Schneider's medium. 24×3 cells were cell lines stably expressed by inserting 10XSTAT92E-luciferase and PolIII-Renilla luciferase-labeled plasmid DNA as reporter constructs into S2-NP cells and were cultured in a medium prepared by adding […] of geneticin to the same medium as that for S2-NP. S2-NP cells in which unpaired (upd) or HOPT^Tum-l as a ligand was expressed and 24×3 cells constructed with reporter constructs were mixed at a constant ratio and cultured for 24 hours in the presence of a compound, the expression level of STAT92E was measured using a luminometer, and the inhibition effect was compared with that of the DMSO-treated group.

SOCS3 = assay: Western blot of SOCS3 expression in L540 cells; assay type: cell-based, human
Protocol: (§1) The human cancer cell lines used in the experiment were U87-MG (human malignant glioblastoma) and MDA-MB-231 (human malignant breast cancer) cell lines, and various kinds of human-derived blood and solid cancer cells including these human cancer cell lines were cultured as previously described (Jung J E, et al. FASEB J. 19, 1296-1298 (2005)). The human Hodgkin lymphoma cancer cell lines L540 and HLDM-2 used in the experiment were obtained from the German Collection of Microorganism and Cell Cultures (DSMZ, Germany) and cultured using RPMI 1640 medium containing 20% FBS in a 5% CO2 incubator at a temperature of 37° C.
(§2) Western blot analysis was performed (Jung J E, et al. FASEB J. 19, 1296-1298 (2005)). The cells were washed two times with PBS and suspended in the lysate (50 mM Tris-HCl, pH 7.4, 350 mM NaCl, 1% Triton X-100, 0.5% Nonidet P-40, 10% glycerol, 0.1% SDS, 1 mM EDTA, 1 mM EGTA, 1 mM Na3VO4, 1 mM PMSF, protease and phosphorylation inhibitor) and the cell membrane and nuclear membrane were crushed to lyse the cells. The insoluble protein fraction was removed by centrifugation, and the supernatant was mixed with SDS electrophoresis buffer and electrophoresis (SDS-PAGE) was performed to detect the protein with the desired antibody and to confirm the protein expression level.

JAK3 = target: T1, JAK3 (Homo sapiens, UniProt P52333); assay: Western blot of upper signaling in L540 cells: JAK3; assay type: cell-based
T1 construct: endogenous in cells; host or cells: L540
T1 sequence (P52333 1-1124): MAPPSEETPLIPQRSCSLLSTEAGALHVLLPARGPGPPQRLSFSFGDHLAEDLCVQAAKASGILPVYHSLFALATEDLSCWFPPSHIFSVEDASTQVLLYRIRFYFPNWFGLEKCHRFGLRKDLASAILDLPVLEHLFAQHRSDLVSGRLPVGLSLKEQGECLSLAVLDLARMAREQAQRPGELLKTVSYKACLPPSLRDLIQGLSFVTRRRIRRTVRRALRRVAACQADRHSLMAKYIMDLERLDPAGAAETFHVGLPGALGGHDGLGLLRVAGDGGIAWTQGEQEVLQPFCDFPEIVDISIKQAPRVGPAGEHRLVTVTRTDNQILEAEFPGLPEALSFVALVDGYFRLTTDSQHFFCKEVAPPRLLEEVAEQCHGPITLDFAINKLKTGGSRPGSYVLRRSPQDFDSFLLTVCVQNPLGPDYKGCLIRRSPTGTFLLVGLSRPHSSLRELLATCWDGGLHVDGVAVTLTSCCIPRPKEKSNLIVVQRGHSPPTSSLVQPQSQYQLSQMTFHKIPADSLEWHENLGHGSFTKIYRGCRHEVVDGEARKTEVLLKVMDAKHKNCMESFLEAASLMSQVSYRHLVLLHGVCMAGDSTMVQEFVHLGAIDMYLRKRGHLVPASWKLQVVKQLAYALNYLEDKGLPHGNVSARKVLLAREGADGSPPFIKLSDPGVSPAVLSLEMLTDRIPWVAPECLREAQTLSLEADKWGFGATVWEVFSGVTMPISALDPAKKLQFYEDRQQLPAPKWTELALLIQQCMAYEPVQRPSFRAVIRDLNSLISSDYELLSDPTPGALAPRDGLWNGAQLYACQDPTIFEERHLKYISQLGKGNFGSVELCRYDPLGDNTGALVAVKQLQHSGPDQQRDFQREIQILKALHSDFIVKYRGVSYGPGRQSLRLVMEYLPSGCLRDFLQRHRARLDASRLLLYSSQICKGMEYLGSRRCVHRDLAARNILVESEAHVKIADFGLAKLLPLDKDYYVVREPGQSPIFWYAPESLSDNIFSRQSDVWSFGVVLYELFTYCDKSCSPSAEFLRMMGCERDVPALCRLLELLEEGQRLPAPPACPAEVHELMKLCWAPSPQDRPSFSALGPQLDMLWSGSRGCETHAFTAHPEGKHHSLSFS
Protocol: as §1, §2

Src family kinase Lyn = target: T2, Src family kinase Lyn (Homo sapiens, UniProt P07948); assay: Western blot of signaling in L540 cells: Lyn; assay type: cell-based
T2 construct: endogenous in cells; host or cells: L540
T2 sequence (P07948 whole entry): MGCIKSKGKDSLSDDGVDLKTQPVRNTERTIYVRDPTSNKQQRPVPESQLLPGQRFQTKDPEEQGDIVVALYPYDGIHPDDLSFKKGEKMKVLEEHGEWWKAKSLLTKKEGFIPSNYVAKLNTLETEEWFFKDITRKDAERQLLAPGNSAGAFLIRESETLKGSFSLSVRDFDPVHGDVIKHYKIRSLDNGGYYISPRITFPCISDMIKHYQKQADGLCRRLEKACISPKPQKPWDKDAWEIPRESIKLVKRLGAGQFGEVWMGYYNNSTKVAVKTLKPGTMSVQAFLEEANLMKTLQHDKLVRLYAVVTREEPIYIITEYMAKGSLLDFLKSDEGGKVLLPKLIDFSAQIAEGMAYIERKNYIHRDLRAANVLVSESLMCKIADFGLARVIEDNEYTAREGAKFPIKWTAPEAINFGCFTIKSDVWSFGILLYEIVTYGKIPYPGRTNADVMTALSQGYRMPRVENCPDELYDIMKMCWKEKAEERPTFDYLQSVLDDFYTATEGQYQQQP
Protocol: as §1, §2

ERK signaling process = assay: Western blot of signaling in L540 cells: ERK; assay type: cell-based, human
Protocol: as §1, §2

STAT3 [1] = target: T3, STAT3 (Homo sapiens, UniProt P40763); assay: Western blot in Hodgkin lymphoma cell line L540; assay type: cell-based; design: endogenous in cells; host or cells: L540, HDLM-2, U87-MG, MDA-MB-231, further human glioblastoma and breast cancer lines; details: L540 cells
T3 sequence (P40763 whole entry): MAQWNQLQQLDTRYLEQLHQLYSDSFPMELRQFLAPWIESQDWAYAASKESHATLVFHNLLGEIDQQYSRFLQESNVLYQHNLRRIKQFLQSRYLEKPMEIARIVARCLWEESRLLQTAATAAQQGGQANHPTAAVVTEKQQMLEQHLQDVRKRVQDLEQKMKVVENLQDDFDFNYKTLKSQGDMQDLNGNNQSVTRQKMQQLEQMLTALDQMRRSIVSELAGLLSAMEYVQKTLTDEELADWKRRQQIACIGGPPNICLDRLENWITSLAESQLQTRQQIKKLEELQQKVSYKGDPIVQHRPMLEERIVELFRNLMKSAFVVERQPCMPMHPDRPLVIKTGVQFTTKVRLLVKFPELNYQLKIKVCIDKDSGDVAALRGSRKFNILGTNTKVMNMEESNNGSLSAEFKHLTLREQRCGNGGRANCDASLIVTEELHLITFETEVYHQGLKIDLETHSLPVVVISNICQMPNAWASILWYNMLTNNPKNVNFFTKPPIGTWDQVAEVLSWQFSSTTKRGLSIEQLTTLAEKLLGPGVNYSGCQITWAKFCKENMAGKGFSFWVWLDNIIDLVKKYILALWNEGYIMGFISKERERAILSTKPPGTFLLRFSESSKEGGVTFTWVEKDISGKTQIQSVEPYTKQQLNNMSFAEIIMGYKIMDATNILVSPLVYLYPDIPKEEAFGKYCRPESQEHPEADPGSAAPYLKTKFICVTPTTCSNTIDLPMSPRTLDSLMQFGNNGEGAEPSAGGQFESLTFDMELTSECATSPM
Protocol: as §1, §2

STAT3 [2] = target: T3, STAT3; assay: Western blot in HDLM-2 cells; assay type: cell-based; design: endogenous in cells; host or cells: L540, HDLM-2, U87-MG, MDA-MB-231, further human glioblastoma and breast cancer lines
Protocol: as §1, §2

## CC(C)(C)c1nc(COc2cccc([N+](=O)[O-])c2)no1 [ODZ17690, 5-tert-butyl-3-(3-nitro-phenoxymethyl)-[1,2,4]oxadiazole]
STAT92E
  expression of STAT92E (luciferase assay): effectively inhibited the expression of STAT92E
SOCS3
  expression of SOCS3: effectively inhibited
JAK3
  inhibitory action on JAK3: weak inhibitory action
Src family kinase Lyn
  inhibitory action on Src family kinase Lyn: did not exert an inhibitory action
ERK signaling process
  inhibitory action on ERK signaling process: did not exert an inhibitory action
STAT3 [1]
  phosphorylation of tyrosine residue 705 of STAT3: effectively inhibited the phosphorylation of tyrosine residue 705 of STAT3
  selective inhibitory action on STAT3 versus STAT1 or STAT5: stronger selective inhibitory action on STAT3 than on STAT1 or STAT5
STAT3 [2]
  phosphorylation of tyrosine residue 705 of STAT3: selectively inhibited phosphorylation of tyrosine residue 705 of STAT3
